According to US20190240225A1, “COMBINATION OF A BCL-2 INHIBITOR AND A MCL-1 INHIBITOR, USES AND PHARMACEUTICAL COMPOSITIONS THEREOF” (LES LABORATOIRES SERVIER, priority 2016, published 2019):

Columns and labels:
neuroblastoma cell lines = test: CellTiterGlo viability, panel of neuroblastoma cell lines; type: cell-based; settings: all neuroblastoma cell lines tested; single agent
Method: (§1) In addition, all media contained penicillin (100 IU/ml), streptomycin (100 μg/ml) and L-glutamine (2 mM). Cell lines were cultured at 37° C. in a humidified atmosphere containing 5% CO2 and expanded in T-150 flasks. In all cases cells were thawed from frozen stocks, expanded through ≥1 passage using appropriate dilutions, counted and assessed for viability using a CASY cell counter prior to plating 150 ul/well at the densities indicated in Table 6 into 96-well plates. All cell lines were determined to be free of mycoplasma contamination in-house.
Stock solutions of compounds were prepared at a concentration of 5 mM in DMSO and stored at −20° C. […] Effects of the compounds on cell viability were assessed after 2 or 3 days of incubation (as indicated in Table 6) at 37° C./5% CO2 by quantification of cellular ATP levels using CellTiterGlo at 150 μL reagent/well. […] Luminescence was quantified on a multipurpose platereader. Single agent IC50s were calculated using standard four-parametric curve fitting. […]
Identical experiments were performed to assess potential synergistic interactions between compound combinations. Synergy Score were assessed using the Excess Inhibition 2D matrix according to the Loewe additivity model (Lehar et al, Nat Biotechnol. 2009 July; 27(7): 659-666). […]

KMS11 = test: MTT cell viability assay, myeloma cell line; type: cell-based, human; settings: Homo sapiens, KMS-11, single agent, read-out: IC50
Method: (§2) Cell lines: Human myeloma cell lines (HMCLs) were derived from primary myeloma cells cultured in RPMI 1640 medium supplemented with 5% fetal calf serum from and 3 ng/mL recombinant IL-6 for IL-6 dependent cell lines. HMCLs are representative of phenotypic and genomic heterogeneity and the variability in patient's response to therapy.
(§3) MTT assay: Cell viability is measured using MTT (3-(4,5-dimethylthiazol-2-yl)-2,5-diphenyltetrazolium bromide) colorimetric survival assay. Cells are incubated with compounds in 96-well plates containing a final volume of 100 μl/well time. (2R)-2-{[(5Sa)-5-{3-chloro-2-methyl-4-[2-(4-methylpiperazin-1-yl)ethoxy]phenyl}-6-(5-fluorofuran-2-yl)thieno[2,3-d]pyrimidin-4-yl]oxy}-3-(2-{[1-(2,2,2-trifluoroethyl)-1H-pyrazol-5-yl]methoxy}phenyl)propanoic acid (Compound 2) is used at 9 different concentrations accordingly to single agent sensitivity. N-(4-hydroxyphenyl)-3-{6-[((3S)-3-(4-morpholinylmethyl)-3,4-dihydro-2(1H)-isoquinolinyl)carbonyl]-1,3-benzodioxol-5-yl}-N-phenyl-5,6,7,8-tetrahydro-1-indolizine carboxamide hydrochloride (Compound 1, HCl) is used at a fixed dose—1 μM. At the end of each treatment, cells are incubated with 1 mg/mL MTT (50 μl MTT solution 2.5 mg/ml for each well) at 37° C. for 3 hours allowing the MTT to be metabolized. Lysis buffer (100 μl Lysis buffer: DMF (2:3)/SDS (1:3)) is added into each well to dissolve formazan cristals and after 18 h of incubation, absorbance in viable cells is measured at 570 nm using a spectrophotometer.
(§4) The sensitivity of 27 human multiple myeloma cell lines to Compound 1, Compound 2 or to Compound 2 in the presence of 1 μM of Compound 1 was analyzed by using MTT cell viability assay. 50% inhibitory concentrations (IC50, in nM) were determined.

MM1S = test: MTT cell viability assay, myeloma cell line; type: cell-based, human; settings: Homo sapiens, MM1.S, single agent, read-out: IC50
Method: as §2, §3, §4

NAN8 = test: MTT cell viability assay, myeloma cell line; type: cell-based, human; settings: Homo sapiens, single agent, read-out: IC50
Method: as §2, §3, §4

NAN1 = test: MTT cell viability assay, myeloma cell line; type: cell-based, human; settings: Homo sapiens, single agent, read-out: IC50
Method: as §2, §3, §4

NAN6 = test: MTT cell viability assay, myeloma cell line; type: cell-based, human; settings: Homo sapiens, single agent, read-out: IC50
Method: as §2, §3, §4

BCN = test: MTT cell viability assay, myeloma cell line; type: cell-based, human; settings: Homo sapiens, single agent, read-out: IC50
Method: as §2, §3, §4

XG1 = test: MTT cell viability assay, myeloma cell line; type: cell-based, human; settings: Homo sapiens, single agent, read-out: IC50
Method: as §2, §3, §4

AMO1 = test: MTT cell viability assay, myeloma cell line; type: cell-based, human; settings: Homo sapiens, single agent, read-out: IC50
Method: as §2, §3, §4

[1] = tested on: Acute Myeloid Leukemia (AML) cell lines; test: CellTiterGlo viability, panel of AML cell lines; type: cell-based; settings: all 5 AML cell lines of combination (c); single agent; read-out: IC50s
Method: In addition, all media contained penicillin (100 IU/ml), streptomycin (100 μg/ml) and L-glutamine (2 mM).
as §1, with “Cell” for “In addition, all media contained penicillin (100 IU/ml), streptomycin (100 μg/ml) and L-glutamine (2 mM). Cell”, “Table 1” for “Table 6”
Stock solutions of compounds were prepared at a concentration of 5 mM in DMSO and stored at −20° C.
In order to analyse the activity of the compounds as single agents, cells were seeded and treated with nine 2-fold serial dilutions of each compound dispensed individually directly into the cell assay plates. Effects of the compounds on cell viability were assessed after 3 days of incubation at 37° C./5% CO2 by quantification of cellular ATP levels using CellTiterGlo at 75 μL reagent/well. All the experiments were performed in triplicates. Luminescence was quantified on a multipurpose plate reader. Single agent IC50s were calculated using standard four-parametric curve fitting. […]
In order to analyse the activity of the compounds in combination, cells were seeded and treated with seven or eight 3.16-fold serial dilutions of each compound dispensed, either individually or in all possible permutations in a checkerboard fashion, directly into the cell assay plates as indicated in FIG. 9. Effects of the single agents as well as their checkerboard combinations on cell viability were assessed after 3 days of incubation at 37° C./5% CO2 by quantification of cellular ATP levels using CellTiterGlo at 75 μL reagent/well. […] Luminescence was quantified on a multipurpose plate reader.
Potential synergistic interactions between compound combinations were assessed using the Excess Inhibition 2D matrix according to the Loewe additivity model and are reported as Synergy Score (Lehar et al, Nat Biotechnol. 2009 July; 27(7): 659-666). […]

Row | SMILES | IC50 (neuroblastoma cell lines) | IC50 (KMS11) | IC50 (MM1S) | IC50 (NAN8) | IC50 (NAN1) | IC50 (NAN6) | IC50 (BCN) | IC50 (XG1) | IC50 (AMO1) | IC50 [1]
1 | Cl.O=C(c1cc(-c2cc3c(cc2C(=O)N2Cc4ccccc4C[C@H]2CN2CCOCC2)OCO3)n2c1CCCC2)N(c1ccccc1)c1ccc(O)cc1 [Compound 1, HCl, N-(4-hydroxyphenyl)-3-{6-[((3S)-3-(4-morpholinylmethyl)-3,4-dihydro-2(1H)-isoquinolinyl)carbonyl]-1,3-benzodioxol-5-yl}-N-phenyl-5,6,7,8-tetrahydro-1-indolizine carboxamide hydrochloride] | > 1 µM | 10.5 µM | 21.4 µM | 9.1 µM | 6.66 µM | 4.07 µM | 22.2 µM | 9.78 µM | 8.61 µM | 
2 | COc1ccccc1-c1nccc(COc2ccccc2C[C@@H](Oc2ncnc3sc(-c4ccc(F)cc4)c(-c4ccc(OCCN5CCN(C)CC5)c(Cl)c4C)c23)C(=O)O)n1 [Compound 3, (2R)-2-{[(5Sa)-5-{3-chloro-2-methyl-4-[2-(4-methylpiperazin-1-yl)ethoxy]phenyl}-6-(4-fluorophenyl)thieno[2,3-d]pyrimidin-4-yl]oxy}-3-(2-{[2-(2-methoxyphenyl)pyrimidin-4-yl]methoxy}phenyl)propanoic acid] |  |  |  |  |  |  |  |  |  | < 0.2 µM
